Measured values reported in patent US12171760B2, “Use of glucocorticoid receptor modulators to potentiate checkpoint inhibitors” (Corcept Therapeutics Incorporated, priority 2016, dated 2024).

Tests used:
[1] = tested on: mouse CT26 cancer cells; test: CT26 tumor growth in mice, combination of CORT125134 or CORT125281 and anti CTLA4; assay type: in vivo; details: SGRM 30 mg/kg orally daily in combination with mouse anti CTLA4 antibody (clone 9D9, 10 mg/kg) i.p. twice a week; C57BL/6 mice, s.c. CT26 tumors; FIG. 3
Procedure: Suspensions of mouse CT26 cancer cells were injected subcutaneously into the left flank of 6-7 week old immunocompetent female mice (C57BL/6), ½ million cells per mouse. Tumors were allowed to grow until they reached a volume of 50-100 mm^3. Mice were then grouped into three groups, ten (10) per group. Group I was dosed with the anti-CTLA4 vehicle (PBS, 10 ml/kg) i. p. twice a week and the CORT125134 vehicle p.o. (10% DMSO, 0.1% Tween 80 and 89.9% HPMC (0.5%), 10 ml/kg) daily. Group II was dosed with the mouse anti CTLA4 antibody (clone 9D9, 10 mg/kg) i. p. twice a week. Group III was dosed with the mouse anti CTLA4 antibody (clone 9D9, 10 mg/kg) i. p. twice a week and CORT125134 (a SGRM) (30 mg/kg) orally on a daily basis. Group IV was dosed with the mouse anti CTLA4 antibody (clone 9D9, 10 mg/kg) i. p. twice a week and CORT125281 (a SGRM) (30 mg/kg) orally on a daily basis.
(§1) The longest (L) and shortest (S) diameters of the tumors were measured three times a week with electronic calipers and tumor volume was calculated using the formula for an ellipsoid sphere: S^2×L×(0.5). The tumor growth data are shown in FIG. 3, in which the mean tumor volume for each group is plotted against the number of days of tumor growth since initiation of the treatment.

[2] = tested on: breast cancer; test: Treating a breast cancer patient with the combination therapy (tumor load by enhanced magnetic resonance imaging); assay type: in vivo, human; details: CORT125134 200 mg once a day for eight weeks with pembrolizumab 3 mg/kg every 2 weeks
Procedure: A patient suffering from breast cancer is treated with pembrolizumab at a dose of 3 mg/kg every 2 weeks and CORT125134 at a dose of 200 mg once a day for eight weeks. Their tumor load is monitored using enhanced magnetic resonance imaging before, during and after the treatment.

[3] = tested on: mouse MC38 cancer cells; test: MC38 tumor growth in mice, combination of CORT125134 and anti PD-1; assay type: in vivo; details: CORT125134 30 mg/kg orally daily in combination with mouse anti PD-1 antibody (clone RPM1-14, 10 mg/kg) i.p. twice a week; C57BL/6 mice, s.c. MC38 tumors; FIG. 1
Procedure: Suspensions of mouse MC38 cancer cells were injected subcutaneously into the left flank of 5-6 week old immunocompetent female mice (C57BL/6), 1 million cells per mouse. Tumors were allowed to grow until they reach a volume of 100 mm^3. Mice were then grouped into three groups, ten (10) per group. Group I was dosed with the anti-PD-1 vehicle (PBS, 10 ml/kg) i. p. twice a week and the CORT125134 vehicle p.o. (10% DMSO, 0.1% Tween 80 and 89.9% HPMC (0.5%), 10 ml/kg) daily. Group II was dosed with the mouse anti PD-1 antibody (clone RPM1-14, 10 mg/kg) i. p. twice a week. Group III was dosed with the mouse anti PD-1 antibody (clone RPM1-14, 10 mg/kg) i. p. twice a week and CORT125134 (a SGRM) (30 mg/kg) orally on a daily basis. The longest (L) and shortest (S) diameters of the tumors were measured three times a week with electronic calipers and tumor volume was calculated using the formula for an ellipsoid sphere: S^2×L×(0.5). The tumor growth data are shown in FIG. 1, in which the mean tumor volume as compared to the mean pre-dosing tumor volume for each group of mice is plotted against the number of days of tumor growth since initiation of the treatment.

[4] = tested on: mouse A20 cancer cells; test: A20 tumor growth in mice, combination of CORT125281 and anti PD-1; assay type: in vivo; details: CORT125281 30 mg/kg orally daily in combination with mouse anti PD-1 antibody (clone RPM1-14, 10 mg/kg) i.p. twice a week; C57BL/6 mice, s.c. A20 tumors; FIG. 2
Procedure: Suspensions of mouse A20 cancer cells were injected subcutaneously into the left flank of 5-6 week old immunocompetent female mice (C57BL/6), ½ million cells per mouse. Tumors were allowed to grow until they reached a volume of 100 mm^3. Mice were then grouped into three groups, ten (10) per group. Group I was dosed with the anti-PD-1 vehicle (PBS, 10 ml/kg) i. p. twice a week and the CORT125281 vehicle p.o. (10% DMSO, 0.1% Tween 80 and 89.9% HPMC (0.5%), 10 ml/kg) daily. Group II was dosed with the mouse anti PD-1 antibody (clone RPM1-14, 10 mg/kg) i. p. twice a week. Group III was dosed with the mouse anti PD-1 antibody (clone RPM1-14, 10 mg/kg) i. p. twice a week and CORT125281 (a SGRM) (30 mg/kg) orally on a daily basis.
as §1, with “2,” for “3,”, “group of mice” for “group”

SMILES | reducing tumor growth (mean tumor volume) [1] | reduction of the size of the tumor at the end of the treatment period [2] | reducing tumor growth (mean tumor volume as compared to the mean pre-dosing tumor volume) [3] | reducing tumor growth (mean tumor volume) [4]
Cn1cc(S(=O)(=O)N2CCC3=Cc4c(cnn4-c4ccc(F)cc4)C[C@]3(C(=O)c3cc(C(F)(F)F)ccn3)C2)cn1 [CORT125134, (R)-(1-(4-fluorophenyl)-6-((1-methyl-1H-pyrazol-4-yl)sulfonyl)-4,4a,5,6,7,8-hexahydro-1H-pyrazolo[3,4-g]isoquinolin-4a-yl)(4-(trifluoromethyl)pyridin-2-yl)methanone] | superior to both the anti CTLA4 group and the vehicle group in reducing tumor growth | more than 20% | superior to both the anti PD-1 group and the vehicle group in reducing tumor growth | 
Cn1ncc(S(=O)(=O)N2CC[C@H]3Cc4c(cnn4-c4ccc(F)cc4)C[C@]3(C(=O)c3cc(C(F)(F)F)ccn3)C2)n1 [CORT125281, ((4aR,8aS)-1-(4-fluorophenyl)-6-((2-methyl-2H-1,2,3-triazol-4-yl)sulfonyl)-4,4a,5,6,7,8,8a,9-octahydro-1H-pyrazolo[3,4-g]isoquinolin-4a-yl)(4-(trifluoromethyl)pyridin-2-yl)methanone] | superior to both the anti CTLA4 group and the vehicle group in reducing tumor growth |  |  | superior to both the anti PD-1 group and the vehicle group in reducing tumor growth
